From US20260001871A1, “TRIAZOLE DERIVATIVES AS MODULATORS OF MAS-RELATED G-PROTEIN RECEPTOR D” (ESCIENT PHARMACEUTICALS, INC., priority 2022, published 2026)

Target: human MRGPRD (Homo sapiens, UniProt Q8TDS7)
Assay: MRGPRD antagonist activity, IP-One HTRF assay in CHO cells stably expressing human MRGPRD (versus 100 μM β-Alanine agonist)
Format: cell-based
Method in brief: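 CHO cells stably expressing human MRGPRD, plated overnight at 37 °C, were treated with antagonist plus agonist in Tris-HCl/NaCl/LiCl buffer pH 8, incubated 1 h at 37 °C then 1 h at room temperature. IP-1 accumulation read by HTRF; IC50 and percent antagonism of maximum efficacy averaged, SEM reported.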

Chain of human MRGPRD (Q8TDS7 whole entry): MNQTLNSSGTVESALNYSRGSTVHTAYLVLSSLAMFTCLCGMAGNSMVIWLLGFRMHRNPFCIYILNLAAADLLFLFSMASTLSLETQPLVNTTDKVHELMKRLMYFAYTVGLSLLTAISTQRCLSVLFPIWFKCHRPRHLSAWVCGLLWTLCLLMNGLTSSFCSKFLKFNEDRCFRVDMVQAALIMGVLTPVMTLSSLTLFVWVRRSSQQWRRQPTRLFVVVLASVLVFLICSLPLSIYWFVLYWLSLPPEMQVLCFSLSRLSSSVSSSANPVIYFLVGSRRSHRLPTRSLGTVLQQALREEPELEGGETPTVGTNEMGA

Structure (SMILES) | IC50 [nM]
CC(=O)c1cccc(-c2cc(-n3nnc(C(=O)Nc4ccncc4)c3C3CC3)ccc2F)c1 [Compound 7-245] | 500 to 1000
Cc1cc(NC(=O)c2nnn(C3CCC(c4c(C)nn(C)c4C)CC3)c2C2CC2)ccn1 (centres unmarked) [Compound 13-1, 5-cyclopropyl-N-(2-methylpyridin-4-yl)-1-(4-(1,3,5-trimethyl-1H-pyrazol-4-yl)cyclohexyl)-1H-1,2,3-triazole-4-carboxamide] | 1000 to 3000
CC(=O)c1ccccc1-c1ccc(-n2nnc(C(=O)Nc3ccncc3)c2C2CC2)cc1 [Compound 7-134] | 500 to 1000
CCc1ccccc1-c1ccc(-n2nnc(C(=O)Nc3ccncc3)c2C2CC2)cc1 [Compound 7-208] | 1000 to 3000
O=C(Nc1ccncc1)c1nnn(-c2cccc(-c3ccc[nH]3)c2)c1C1CC1 [Compound 7-296] | 1000 to 3000
Cc1nn(-c2ccccc2)c(C)c1-c1cccc(-n2nnc(C(=O)Nc3ccncc3)c2C2CC2)c1 [Compound 7-255] | 500 to 1000
CC(C)Oc1ccccc1-c1ccc(-n2nnc(C(=O)Nc3ccncc3)c2C2CC2)cc1 [Compound 7-160] | 500 to 1000
O=C(Nc1ccncc1)c1nnn(-c2ccc(-c3cn[nH]c3)cc2)c1C1CC1 [Compound 7-173] | 1000 to 3000
Cc1cc(NC(=O)c2nnn(-c3ccc(-c4ccc(CC#N)cc4)cc3)c2C2CC2)ccn1 [Compound 15-1] | < 100
O=C(Nc1ccncc1)c1nnn(-c2cccc(O)c2)c1C1CC1 [Compound 4-7] | 1000 to 3000
Cc1nn(C)c(C)c1-c1ccc(-n2nnc(C(=O)Nc3ccncc3)c2C2CC2)c(F)c1 [Compound 7-221] | < 100
O=C(Nc1ncnc2[nH]ncc12)c1nnn(-c2ccc(-c3ccccc3)cc2)c1C1CC1 [Compound 14-53] | 1000 to 3000
Cn1cc(-c2ccc(-n3nnc(C(=O)Nc4ccncc4)c3C3CC3)cc2)c(C2CC2)n1 [Compound 7-218] | > 3000
CC(O)c1ccc(-c2ccc(-n3nnc(C(=O)Nc4ccncc4)c3C3CC3)cc2)cc1 (centres unmarked) [Compound 7-83] | 100 to 500
C[C@H](NC(=O)c1nnn(-c2ccc(-c3ccccc3)cc2)c1C1CC1)c1ccccc1 [Compound 14-86] | > 3000
Cn1cnc(-c2ccc(-n3nnc(C(=O)Nc4ccncc4)c3C3CC3)cc2)c1 [Compound 7-124] | 500 to 1000
CC(=O)c1ccc(-c2cccc(-n3nnc(C(=O)Nc4ccncc4)c3C3CC3)c2)s1 [Compound 7-265] | 500 to 1000
O=C(Nc1ccncc1)c1nnn(-c2ccc(-c3cnsc3)cc2)c1C1CC1 [Compound 7-79] | 100 to 500
Cc1cnn(C)c1-c1ccc(-n2nnc(C(=O)Nc3ccncc3)c2C2CC2)cc1 [Compound 7-73] | 100 to 500
COc1ccc(-c2cccc(-n3nnc(C(=O)Nc4ccncc4)c3C3CC3)c2)cc1C [Compound 7-258] | 500 to 1000
COCn1cc(-c2ccc(-n3nnc(C(=O)Nc4ccncc4)c3C3CC3)cc2)cn1 [Compound 7-158] | 500 to 1000
Cc1cc(NC(=O)c2nnn(-c3ccc(-c4ccccc4)cc3)c2C(C)C)ccn1 [Compound 17-31] | 1000 to 3000
Cc1cc(NC(=O)c2nnn(-c3ccc(-c4ccccc4)cc3OC(F)(F)F)c2C2CC2)ccn1 [Compound 7-82] | 100 to 500
Cc1cc(NC(=O)c2nnn(-c3ccc(-c4ccc(C#N)c(F)c4)cc3)c2C2CC2)ccn1 [Compound 15-2] | 100 to 500
Cc1ccc(NC(=O)c2nnn(-c3ccc(-c4ccc(C#N)cc4C)cc3)c2C2CC2)cn1 [Compound 9-30] | 1000 to 3000

Structure (SMILES) | IC50 [nM]
O=C(Nc1ccncc1)c1nnn(-c2ccc(-c3cncs3)cc2)c1C1CC1 [Compound 7-187] | 1000 to 3000
Cc1ccc(-n2nnc(C(=O)Nc3cc(C)nc(C)c3)c2C2CC2)cc1 [Compound 1-6] | 500 to 1000
COc1ccc(C2(NC(=O)c3nnn(-c4ccc(-c5c(C)nn(C)c5C)cc4)c3C(C)C)CC2)cn1 [Compound 18-25] | 500 to 1000
CC(NC(=O)c1nnn(-c2ccc(-c3ccccc3)cc2)c1C1CC1)c1ccc(S(C)(=O)=O)cc1 (centres unmarked) [Compound 14-47] | 1000 to 3000
Cc1nn(C)c(C)c1-c1ccc(-n2nnc(C(=O)NCc3cccnc3)c2C(C)C)cc1 [Compound 17-22] | 100 to 500
Cc1nn2cccnc2c1-c1ccc(-n2nnc(C(=O)NC3(c4cncc(Cl)c4)CC3)c2C2CC2)cc1 [Compound 10-2] | > 3000
Cc1ccc(CNC(=O)c2nnn(-c3ccc(-c4c(C)nn(C)c4F)cc3)c2C2CC2)cn1 [Compound 8-3] | 100 to 500
Cc1ccc(-c2ccc(-n3nnc(C(=O)Nc4ccncc4)c3C3CC3)cc2)s1 [Compound 7-182] | 1000 to 3000
N#Cc1ccc(-c2cccc(-n3nnc(C(=O)Nc4ccncc4)c3C3CC3)c2)cc1 [Compound 7-264] | 500 to 1000
O=C(Nc1ccncc1)c1nnn(-c2ccc(-c3cnoc3)cc2)c1C1CC1 [Compound 7-105] | 100 to 500
O=C(Nc1ccncc1)c1nnn(-c2ccc(C3CCCC3)cc2)c1C1CC1 [Compound 2-11] | 1000 to 3000
Cc1ccc(CNC(=O)c2nnn(-c3ccc(-c4ccccc4)cc3)c2C2CC2)cn1 [Compound 14-20] | 500 to 1000
CCn1cc(C2(NC(=O)c3nnn(-c4ccc(-c5ccc(C#N)nc5)cc4)c3C(C)C)CC2)cn1 [Compound 18-27] | 1000 to 3000
Cc1nn(C)c(C)c1-c1ccc(-n2nnc(C(=O)NC3CC3)c2C(C)C)cc1 [Compound 17-34] | > 3000
O=C(Nc1ccncc1)c1nnn(-c2ccc(-c3ccccc3O)cc2)c1C1CC1 [Compound 7-161] | 500 to 1000
O=C(Nc1ccncc1)c1nnn(-c2cccc(-c3cnn(CC(F)(F)F)c3)c2)c1C1CC1 [Compound 7-248] | 500 to 1000
Cn1ncc(CO)c1-c1ccc(-n2nnc(C(=O)Nc3ccncc3)c2C2CC2)cc1 [Compound 7-192] | 1000 to 3000
CC(=O)c1cccc(-c2cccc(-n3nnc(C(=O)NC(C)c4nc5ccccc5n4C)c3C3CC3)c2)c1 (centres unmarked) [Compound 18-22] | > 3000
NC(=O)c1ccc(-c2ccc(-n3nnc(C(=O)NC4(c5cccnc5)CC4)c3C3CC3)cc2)cn1 [Compound 18-10] | 1000 to 3000
N#Cc1cccc(-c2ccc(-n3nnc(C(=O)Nc4ccncc4)c3C3CC3)cc2)c1 [Compound 7-139] | 500 to 1000
COc1cc(-c2ccc(-n3nnc(C(=O)Nc4ccncc4)c3C3CC3)cc2)n[nH]1 [Compound 7-138] | 500 to 1000
CCc1cccc(-c2ccc(-n3nnc(C(=O)Nc4ccncc4)c3C3CC3)cc2)c1 [Compound 7-91] | 100 to 500
O=C(Nc1ccncc1)c1nnn(-c2ccc(-c3ccc(Cl)cc3)cc2)c1C1CC1 [Compound 7-90] | 100 to 500
O=C(Nc1cnn(C2CC2)c1)c1nnn(-c2ccc(-c3ccccc3)cc2)c1C1CC1 [Compound 14-87] | > 3000
Cc1nn(C)c(F)c1-c1ccc(-n2nnc(C(=O)Nc3ccncc3)c2C2CC2)cc1 [Compound 7-16] | < 100

Structure (SMILES) | IC50 [nM]
COCCn1nnc(C(=O)Nc2ccncc2)c1C1CC1 [Compound 6-4] | 1000 to 3000
COc1cccc(-c2cccc(-n3nnc(C(=O)Nc4ccncc4)c3C3CC3)c2)c1 [Compound 7-292] | 1000 to 3000
Cn1c(CNC(=O)c2nnn(-c3ccc(-c4ccc(C#N)cc4)cc3)c2C2CC2)nc2ccccc21 [Compound 15-5] | 500 to 1000
Cc1cc(NC(=O)c2nnn(C3CC=C(c4ccc(CC#N)cc4)CC3)c2C2CC2)ccn1 (centres unmarked) [Compound 12-7] | 1000 to 3000
O=C(Nc1ccnc(C(F)(F)F)c1)c1nnn(-c2ccc(-c3ccccc3)cc2)c1C1CC1 [Compound 14-52] | 1000 to 3000
O=C(Nc1ccncc1)c1nnn(-c2ccc(-c3cnn(CC(F)(F)F)c3)cc2)c1C1CC1 [Compound 7-123] | 500 to 1000
CCc1cc(NC(=O)c2nnn(-c3ccc(-c4c(C)nn5cccnc45)cc3)c2C2CC2)ccn1 [Compound 10-4] | 100 to 500
Cc1cc(NC(=O)c2nnn(-c3ccc(-c4ccc(C#N)cc4)cn3)c2C(C)C)ccn1 [Compound 17-15] | 100 to 500
COc1ccc(-c2ccc(-n3nnc(C(=O)Nc4ccnc(C)c4)c3C3CC3)cc2)cn1 [Compound 15-14] | 100 to 500
Cc1cc(-c2ccc(C#N)cc2)ccc1-n1nnc(C(=O)Nc2ccncc2)c1C1CC1 [Compound 7-230] | 100 to 500
O=C(NC1(c2cccnc2)CC1)c1nnn(-c2ccc(-c3ccccc3)cc2)c1C1CC1 [Compound 14-46] | 1000 to 3000
COCn1cc(-c2cccc(-n3nnc(C(=O)Nc4ccncc4)c3C3CC3)c2)cn1 [Compound 7-301] | 1000 to 3000
Cn1ncc2c1CCC2NC(=O)c1nnn(-c2ccc(-c3ccccc3)cc2)c1C1CC1 (centres unmarked) [Compound 14-70] | 1000 to 3000
O=C(N[C@H]1CCc2ccccc21)c1nnn(-c2ccc(-c3ccccc3)cc2)c1C1CC1 [Compound 14-57] | 1000 to 3000
Cc1[nH]nc(-c2ccc(-n3nnc(C(=O)Nc4ccncc4)c3C3CC3)cc2)c1Cl [Compound 7-128] | 500 to 1000
CCn1cc(CNC(=O)c2nnn(-c3ccc(-c4c(C)nn(-c5ccccc5)c4C)cc3)c2C2CC2)cn1 [Compound 10-9] | < 100
CC(NC(=O)c1nnn(-c2ccc(-c3ccc(C#N)cc3)cc2)c1C1CC1)c1cnn(C)c1 (centres unmarked) [Compound 15-8] | 1000 to 3000
Cc1nn(C)c(C)c1-c1ccc(-n2nnc(C(=O)Nc3ccncc3)c2C2CC2)cc1F [Compound 7-234] | 100 to 500
COc1ccc(-c2cccc(-n3nnc(C(=O)Nc4ccncc4)c3C3CC3)c2)c(F)c1 [Compound 7-247] | 500 to 1000
O=C(Nc1ccncc1)c1nnn(-c2cccc(-c3cnn(Cc4ccccc4)c3)c2)c1C1CC1 [Compound 7-270] | 500 to 1000
CCn1cc(CNC(=O)c2nnn(-c3ccc(-c4ccc(C#N)cc4)cc3OC)c2C(C)C)cn1 [Compound 17-21] | 100 to 500
Cc1cccc(-c2ccc(-n3nnc(C(=O)Nc4ccncc4)c3C3CC3)cc2)c1 [Compound 7-113] | 500 to 1000
O=C(Nc1ccncc1)c1nnn(-c2ccc(-c3ccccc3C(F)(F)F)cc2)c1C1CC1 [Compound 7-169] | 1000 to 3000
O=C(Nc1ccncc1)c1nnn(-c2ccc(-c3cnn(Cc4ccccc4)c3)cc2)c1C1CC1 [Compound 7-20] | < 100
